Experiments:
[1] = tested on: Saccharomyces cerevisiae wild type strain BY4743; assay: AF1 combined gene expression and metabolite data mapped to KEGG reactions and pathways; format: cell-based
Source text: In AF1, two different technologies were utilized: gene expression analysis (for examination of mRNA expression) and metabolite analysis. […] As noted previously, existing metabolic databases may be helpful in practicing the methods and systems of the present invention, but many databases include limitations that make their use in data analysis and pathway mapping less than straightforward. […] This caveat to KEGG makes it difficult to pinpoint the correct pathway when attempting to link a gene to a specific pathway. […] The pathway score indicates how meaningful the mapping is, or how likely it is to be correctly indicative of the pathway involved in the perturbation under examination. The method provides a pathway score based on perturbation levels of genes and/or compounds and the information content of each gene and/or compound in the pathway, i.e., a pathway score indicates the extent to which other pathways are mapped to a gene/compound. For example, imagine that two genes are perturbed in a particular experiment. One gene maps to only one pathway, giving a high degree of probability that the perturbed pathway is the one identified in the mapping. The second gene maps to three pathways. In the later example, there is only one-third the probability that the pathway identified in the mapping is the one perturbed. The present invention provides a method for calculating the pathway scores, so that more weight is given to a score of a gene or compound that maps to only one pathway than to a score of a gene or compound that maps to multiple pathways. […] Where n=the total number of genes in the pathway; ipath—count=the number of pathways containing a gene; and j=the number of genes in the pathway that are perturbed. Another factor to be considered when weighting a pathway score is the degree of perturbation. Degree of perturbation can be calculated, for example, based on a number of standard deviations from a norm, and included in an equation such as the one shown above, so that not only the number of pathways is taken into account, but also accounts for the amount of gene transcript or compound present as compared to a control. Compounds were also linked to pathways using the KEGG database. […] Of the 676 compounds under consideration, 77 were detected in the AF1 samples. […] The multiple mapping feature of KEGG makes it difficult to pinpoint the correct pathway when trying to link a compound to a specific pathway. […] A pathway score calculation is applied to the compounds to account for both information content (number of pathways a compound maps to) and perturbation level. The data were then combined to determine the number of reactions showing an enzyme and at least one compound perturbed, and to determine the number of pathways having at least one enzyme and one perturbed compound perturbed. The results of the analysis are represented in Tables 16 and 17, and were difficult to interpret, illustrating that the ability to draw conclusions from compound mapping to pathways is limited when absent additional data.

[2] = tested on: Saccharomyces cerevisiae wild type strain BY4743; assay: AF1 metabolite analysis (GC-MS, LC-MS) of yeast treated with antifungal drugs; format: cell-based

## OC(Cn1cncn1)(Cn1cncn1)c1ccc(F)cc1F [Fluconazole]
[1]
  Number of Reactions Having an Enzyme and at Least One Compound Perturbed: 2
[2]; GC
  Fold Change of alanine: 0.3084
  Fold Change of asparagine: 0.3999
  Fold Change of aspartic acid: 0.4337
  Fold Change of campesterol: 0
  Fold Change of desmosterol: 0
  Fold Change of disaccaride1: 0.3883
  Fold Change of disaccaride2: 0.1517
  Fold Change of disaccaride3: 0.5803
  Fold Change of ergosterol: 0.948
  Fold Change of fucosterol: 6.665
  Fold Change of glutamine: 0.5242
  Fold Change of glycanopyrose: 1.202
  Fold Change of glycerol: 0.2187
  Fold Change of glycine: −0.1037
  Fold Change of hexadecanoic acid: 0.1343
  Fold Change of iso citric acid: 0.3923
  Fold Change of isoleucine: 0.391
  Fold Change of lanosterol: 8.462
  Fold Change of leucine: 0.3387
  Fold Change of lysine: 0.3412
  Fold Change of malic acid: 0.3975
  Fold Change of mevalonic acid lactone: 0.2333
  Fold Change of octadecanoic acid: 0.082
  Fold Change of oleic acid: −0.3073
  Fold Change of ornithine2: 0.4473
  Fold Change of ornithine3: 0.2647
  Fold Change of palmiteliadic acid: −0.08867
  Fold Change of phenylalanine: 0.2774
  Fold Change of phosphate: −0.508
  Fold Change of pyrimidine: 0.2457
[2]; LC
  Fold Change of abscisic acid: 0
  Fold Change of adenosine: 0
  Fold Change of glutamine/lysine: 0.2242
  Fold Change of guanosine: −0.9981
[2]; nLC
  Fold Change of 2-ketobutyric acid: −0.9992
  Fold Change of 2-ketoglutaric: −0.9995
  Fold Change of 3-indolylacetonitri: −0.9998
  Fold Change of 4-methylcatechol: 0
  Fold Change of 4aminobutyrate/dimg: 0.1384
  Fold Change of 5hydroxyLtryptophan: 0
  Fold Change of 6-benzylaminopurine: 0
  Fold Change of DLaminoadipic acid: 0.443
  Fold Change of NacetylDglucosamine: 0
  Fold Change of NacetylLglutamate: 0.1369
  Fold Change of NacetylLornithine: 0
  Fold Change of abscisic acid: 0
  Fold Change of aconitic acid: 0.6483
  Fold Change of adenine: 0
  Fold Change of adenosine: 0
  Fold Change of alanine: 0.399
  Fold Change of allantoic acid: 0.2392
  Fold Change of allantoin: 0.3942
  Fold Change of anthranilic acid: 0
  Fold Change of arginine: 0.6484
  Fold Change of argininosuccinate: 0
  Fold Change of asparagine: 0.3545
  Fold Change of aspartic: 0.4993
  Fold Change of benzoic acid: 0
  Fold Change of biotin: 0.3455
  Fold Change of caffeic acid: −0.4711
  Fold Change of catechol: 0
  Fold Change of cinnamic acid: 0
  Fold Change of citricanoic/itaconi: 0
  Fold Change of citrulline: 0
  Fold Change of coumaric acid: 0
  Fold Change of cytidine: −0.7969
  Fold Change of cytosine: 0
  Fold Change of decanoic acid: 0.1846
  Fold Change of diaminopimelic acid: 0
  Fold Change of dihydrofolic acid: 0
  Fold Change of estrone: 0
  Fold Change of farnesol: 0
  Fold Change of folic acid: 0
  Fold Change of fumaric/3m2oxobutan: 0.6009
  Fold Change of gallic acid: 0.5071
  Fold Change of gibberellic: 0
  Fold Change of giutamine/lysine: 0.3309
  Fold Change of glucosamine6PO4: −0.9951
  Fold Change of glutamic/acetylseri: 0.3842
  Fold Change of guanine: 0
  Fold Change of guanosine: −0.993
  Fold Change of histidine: 0
  Fold Change of homogentisic/uric: 0
  Fold Change of hydrocortisone: 0
  Fold Change of indole3pyruvic acid: 0
  Fold Change of inostol/glucos/sorb: −0.4744
  Fold Change of isocitric/citric/qu: 1.457
  Fold Change of jasmonic acid: 0
  Fold Change of kinetin: 0
  Fold Change of lactic acid: −0.0439
  Fold Change of lauric acid: 0.3906
  Fold Change of leucine/isoleucine/: 0.3306
  Fold Change of luteolin: 0
  Fold Change of malic acid: 0.4366
  Fold Change of malonic acid: 0
  Fold Change of menthol*: 0.04758
  Fold Change of methionine: 0
  Fold Change of nicotinic acid: 2.443
  Fold Change of nopaline: 0.3432
  Fold Change of oleic acid: −0.01684
  Fold Change of ornithine: 0.3508
  Fold Change of orotic acid: 0
  Fold Change of palmitic acid: −0.0233
  Fold Change of phenylalanine: 0.1527
  Fold Change of phenylpyruvic acid: 0
  Fold Change of phosphoenolpyruvate: 0
  Fold Change of pinitol: 0
  Fold Change of pipecolic acid: 0.2901
  Fold Change of porphobilinogen: 0
  Fold Change of proline: 0.4164
  Fold Change of pyridoxine: −0.04201
[2]; pLC
  Fold Change of 4-aminobenzoic acid: 0
  Fold Change of 4-methylcatechol: 0
  Fold Change of 4ambutyrate/dimglyc: −0.4383
  Fold Change of 5hydroxyLtryptophan: 0
  Fold Change of 6benzylaminopurine: 0
  Fold Change of DL-aminoadipic acid: 0.1155
  Fold Change of NacetylDglucosamine: 0
  Fold Change of NacetylLglutamate: 0
  Fold Change of NacetylLornithine: 0.1584
  Fold Change of adenine: −0.09439
  Fold Change of alanine/sarcosine: 0.1269
  Fold Change of allantoic acid: 0
  Fold Change of anthranilic acid: 0
  Fold Change of arginine: 0.1179
  Fold Change of argininosuccinate: 0
  Fold Change of asparagine: 0.3192
  Fold Change of aspartic acid: 0.214
  Fold Change of biotin: 0
  Fold Change of caffeine: 0
  Fold Change of citric acid TME: 0
  Fold Change of citrulline: 0.08252
  Fold Change of cytidine: 0
  Fold Change of cytosine: 0
  Fold Change of diaminopimelic acid: 0
  Fold Change of dihydrofolic acid: 0
  Fold Change of dipicolinic acid: 0
  Fold Change of folic acid: 0
  Fold Change of glucosamine: 0
  Fold Change of glucosamine6PO4: 0
  Fold Change of glutamate: −0.06179
  Fold Change of glutathione: −0.05832
  Fold Change of histidine: 0
  Fold Change of hydrocortisone: 0
  Fold Change of hypoxanthine: 0.1298
  Fold Change of itaconic acid dimes: 0
  Fold Change of kinetin: 0
  Fold Change of leucine/isoleucine/: 0.1638
  Fold Change of luteolin: 0
  Fold Change of mannitol: 0.152
  Fold Change of methionine: −0.2906
  Fold Change of mevalonic lactone: −0.5175
  Fold Change of niacinamide: 0
  Fold Change of nicotinic acid: −0.7982
  Fold Change of nopaline: 0
  Fold Change of ornithine: 0.4775
  Fold Change of phenylalanine: −0.1809
  Fold Change of phosphoenolpyruvate: 0
  Fold Change of pipecolic acid: 0.2583
  Fold Change of progesterone: 0
  Fold Change of proline: 0.2075
  Fold Change of pyridoxine: −0.3831

From patent publication US20040018500A1, “Methods and systems for analyzing complex biological systems” (priority 2001, published 2004)
